Experiments:
[1] = test system: BJ cell line (human foreskin fibroblasts); assay: Mammalian cell drug susceptibility assay (Cell Titer Glo, 72 h); assay type: cell-based
Description: The BJ cell line (human foreskin fibroblasts), which express GLUT1 [26], was purchased from the ATTC and cultured according to recommendations. 1000 exponentially growing cells were plated per well (25 μL) in white polystyrene flat bottom sterile 384-well tissue culture treated plates (Corning), and incubated overnight at 37°C in a humidified 5% CO2 incubator. DMSO inhibitor stock solutions were pin-transferred (V&P Scientific) the following day. Plates were placed back in the incubator for 72 h incubation and equilibrated at room temperature for 20 min before addition of 25 μL Cell Titer Glo (Promega) to each well. Plates were shaken on an orbital shaker for 2 min at 500 rpm. Luminescence was read after 15 min on an Envision plate reader (Perkin Elmer). EC50 values were calculated with a custom program (RISE, Robust Investigation of Screening Experiments) using a four-parameter logistic equation.

[2] = test system: intraerythrocytic P. falciparum parasites; parameters: method as in PMID 12792024; conditions: read-out: IC50 growth of intraerythrocytic P. falciparum parasites in vitro; cited from earlier work
human GLUT1 = target: T1, human GLUT1 (Homo sapiens, UniProt P11166); conditions: 1 mM concentration; cited from earlier work
T1 sequence (P11166 1-492): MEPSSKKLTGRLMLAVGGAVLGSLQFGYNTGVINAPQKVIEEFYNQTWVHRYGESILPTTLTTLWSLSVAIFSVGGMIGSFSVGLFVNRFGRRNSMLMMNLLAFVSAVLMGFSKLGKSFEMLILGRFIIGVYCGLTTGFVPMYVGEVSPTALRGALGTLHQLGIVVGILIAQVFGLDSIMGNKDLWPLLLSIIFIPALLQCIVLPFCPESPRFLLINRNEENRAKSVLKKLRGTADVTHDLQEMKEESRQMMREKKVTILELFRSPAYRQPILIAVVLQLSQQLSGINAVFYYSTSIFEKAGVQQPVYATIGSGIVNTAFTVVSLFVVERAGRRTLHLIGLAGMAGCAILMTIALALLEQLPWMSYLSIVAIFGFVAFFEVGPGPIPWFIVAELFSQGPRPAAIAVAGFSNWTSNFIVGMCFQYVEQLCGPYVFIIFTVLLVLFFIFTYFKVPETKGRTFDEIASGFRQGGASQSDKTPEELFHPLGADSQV

P. berghei parasites = test system: P. berghei parasites; parameters: method as in PMID 12792024; conditions: mice infected with P. berghei, 25 mg/kg (i.p.) twice daily; cited from earlier work
[3] = test system: hepatic stage and ookinetes of P. berghei; parameters: method as in PMID 21169382, PMID 21402842; conditions: cited from earlier work
PfHT = PfHT (Plasmodium falciparum, UniProt Q7KWJ5); conditions: read-out: Ki for glucose uptake by PfHT; cited from earlier work
Chain of PfHT (Q7KWJ5 whole entry): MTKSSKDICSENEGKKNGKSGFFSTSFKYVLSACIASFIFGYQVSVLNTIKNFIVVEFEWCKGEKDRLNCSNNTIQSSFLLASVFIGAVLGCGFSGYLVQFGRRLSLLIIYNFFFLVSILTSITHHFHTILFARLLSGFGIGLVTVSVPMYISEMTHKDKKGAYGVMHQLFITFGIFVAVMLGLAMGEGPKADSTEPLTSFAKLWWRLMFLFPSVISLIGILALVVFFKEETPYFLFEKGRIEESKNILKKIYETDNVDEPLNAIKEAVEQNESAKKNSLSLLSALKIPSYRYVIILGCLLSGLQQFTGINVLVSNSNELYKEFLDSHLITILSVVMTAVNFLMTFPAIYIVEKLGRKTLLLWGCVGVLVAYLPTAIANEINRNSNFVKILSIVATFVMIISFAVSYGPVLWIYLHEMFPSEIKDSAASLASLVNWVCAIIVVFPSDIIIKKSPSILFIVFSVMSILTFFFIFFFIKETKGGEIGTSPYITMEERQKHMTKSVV

CC(C)=CCC[C@]1(C)C=Cc2c(O)c3c(c(CC=C(C)C)c2O1)O[C@]12C(=C[C@@H]4C[C@H]1C(C)(C)O[C@@]2(C/C=C(/C)C(=O)O)C4=O)C3=O [Gambogic acid, gambogic acid, reference compound]
EC50 [1]: 2.5 µM

C=CCCCCCCCCCO[C@@H]([C@H](O)[C@H](O)CO)[C@@H](O)C=O [compound 3361, 3-O-((undec-10-en)-1-yl)-D-glucose]
IC50 [2]: 15.7 µM
inhibition of GLUT1 (human GLUT1): no significant inhibition
reduction in parasitemia (P. berghei parasites): 40%
inhibition of viability of liver and mosquito stages [3]: strong inhibition of viability
Ki (PfHT): 53 µM
